From PubChem BioAssay AID328 (DTP/NCI, 2004)
“And” between values parts separate entries of the source, which are not always exact repeats. Equal entries are not always repeated. Inconclusive results and toxic doses are left out.

System: BDF1 mice, P388 leukemia ip, median survival T/C
Assay: NCI In Vivo Anticancer Drug Screen. Data for tumor model P388 Leukemia (intraperitoneal) in B6D2F1 (BDF1) mice
Settings: endpoint: median survival time, higher = longer survival
Method in brief: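 T/C = treated-group survival ÷ vehicle-control survival; tumour transplanted into mice before dosing.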

[1] = dose: 50.0 mg/kg/injection, schedule: Q01DX009 (ip), vehicle: saline with Tween-80
[2] = dose: 100.0 mg/kg/injection, schedule: Q01DX009 (ip), vehicle: saline with Tween-80
[3] = dose: 200.0 mg/kg/injection, schedule: Q01DX009 (ip), vehicle: saline with Tween-80
[4] = dose: 25.0 mg/kg/injection, schedule: Q01DX009 (ip), vehicle: saline with Tween-80
[5] = dose: 50.0 mg/kg/injection, schedule: Q01DX009 (ip), vehicle: other
[6] = dose: 100.0 mg/kg/injection, schedule: Q01DX009 (ip), vehicle: other
[7] = dose: 200.0 mg/kg/injection, schedule: Q01DX009 (ip), vehicle: other
[8] = dose: 100.0 mg/kg/injection, schedule: Q04DX003 (ip), vehicle: saline with Tween-80

## CC(C)C1=CC2=C[C@H](O)[C@H]3C(C)(C)CCC[C@]3(C)C2=C(O)C1=O
dose: 2.0 mg/kg/injection, schedule: Q01DX010 (ip), vehicle: carboxymethylcellulose (CMC)
  T/C: 100 % of control
dose: 2.2 mg/kg/injection, schedule: Q01DX010 (ip), vehicle: carboxymethylcellulose (CMC)
  T/C: 112 % of control
dose: 3.3 mg/kg/injection, schedule: Q01DX010 (ip), vehicle: carboxymethylcellulose (CMC)
  T/C: 116 % of control
dose: 5.0 mg/kg/injection, schedule: Q01DX010 (ip), vehicle: carboxymethylcellulose (CMC)
  T/C: 120 % of control
dose: 10.0 mg/kg/injection, schedule: Q01DX010 (ip), vehicle: carboxymethylcellulose (CMC)
  T/C: 100 % of control
dose: 10.0 mg/kg/injection, schedule: Q01DX010 (ip), vehicle: other
  T/C: 115 % of control
dose: 20.0 mg/kg/injection, schedule: Q01DX010 (ip), vehicle: carboxymethylcellulose (CMC)
  T/C: 110 % of control

## CN1C(=O)C(=O)c2ccccc21
[1]
  T/C: 94 % of control
[2]
  T/C: 97 % of control
[3]
  T/C: 93 % of control

## Clc1ccc(C(c2ccc(Cl)cc2)C(Cl)(Cl)Cl)cc1
dose: 12.5 mg/kg/injection, schedule: Q01DX009 (ip), vehicle: saline with Tween-80
  T/C: 102 % of control
[4]
  T/C: 102 % of control
[1]
  T/C: 88 % of control

## Cc1ccc(S(=O)(=O)NC(=O)C2C(=O)CC3(CCCCC3)CC2=O)cc1
dose: 50.0 mg/kg/injection, schedule: Q01DX009 (ip), vehicle: Klucel (hydroxypropylcellulose) (HPC)
  T/C: 109 % of control
dose: 100.0 mg/kg/injection, schedule: Q01DX009 (ip), vehicle: Klucel (hydroxypropylcellulose) (HPC)
  T/C: 118 % of control

## C1CCC2(CC1)SSC1(CCCCC1)S2
[5]
  T/C: 104 % of control
[6]
  T/C: 100 % of control
[7]
  T/C: 95 % of control

## Cc1c[n+]([O-])cc(C)c1[N+](=O)[O-]
[4]
  T/C: 100 % of control
[1]
  T/C: 90 % of control
[2]
  T/C: 90 % of control
[3]
  T/C: 100 % of control
dose: 400.0 mg/kg/injection, schedule: Q01DX009 (ip), vehicle: saline with Tween-80
  T/C: 100 % of control

## CCOC(=O)c1c(C)nc(C)c(C(=O)OCC)c1-c1cccnc1
dose: 12.5 mg/kg/injection, schedule: Q01DX009 (ip), vehicle: other
  T/C: 101 % of control
dose: 25.0 mg/kg/injection, schedule: Q01DX009 (ip), vehicle: other
  T/C: 100 % of control
[5]
  T/C: 100 % of control
[6]
  T/C: 110 % of control
[7]
  T/C: 112 % of control

## CC1(O)CC(=O)c2c(ccc3c2C(=O)c2cccc(O)c2C3=O)C1 (stereo unspecified)
dose: 0.5 mg/kg/injection, schedule: Q01DX009 (ip), vehicle: Klucel (hydroxypropylcellulose) (HPC)
  T/C: 101 % of control
dose: 1.0 mg/kg/injection, schedule: Q01DX009 (ip), vehicle: Klucel (hydroxypropylcellulose) (HPC)
  T/C: 101 % of control
dose: 2.0 mg/kg/injection, schedule: Q01DX009 (ip), vehicle: Klucel (hydroxypropylcellulose) (HPC)
  T/C: 109 % of control
dose: 4.0 mg/kg/injection, schedule: Q01DX009 (ip), vehicle: Klucel (hydroxypropylcellulose) (HPC)
  T/C: 111 % of control

## CCOC(=O)C(Cc1ccccc1)P(=O)(OCC)OCC (stereo unspecified)
[2]
  T/C: 109 % of control
[3]
  T/C: 104 % of control

## CCCCOC(=O)c1ccc(NC(=O)Nc2ccccc2OC)cc1
[8]
  T/C: 100 % of control

## COC(=S)Nc1ccc2c(c1)nc(-c1ccccc1)c1cc(NC(=S)OC)ccc12
dose: 100.0 mg/kg/injection, schedule: Q04DX002 (ip), vehicle: saline with Tween-80
  T/C: 101 % of control
dose: 200.0 mg/kg/injection, schedule: Q04DX002 (ip), vehicle: saline with Tween-80
  T/C: 101 % of control
dose: 400.0 mg/kg/injection, schedule: Q04DX002 (ip), vehicle: saline with Tween-80
  T/C: 90 % of control

## O=CC(=O)c1ccc(O)cc1
dose: 50.0 mg/kg/injection, schedule: Q04DX003 (ip), vehicle: saline sonified
  T/C: 109 % of control
dose: 300.0 mg/kg/injection, schedule: Q04DX003 (ip), vehicle: saline with Tween-80
  T/C: 86 % of control

## CC1C(=O)CCC2(C)CCC(C)(C)CC12 (stereo unspecified)
[8]
  T/C: 109 % of control
dose: 200.0 mg/kg/injection, schedule: Q04DX003 (ip), vehicle: saline with Tween-80
  T/C: 109 % of control
dose: 400.0 mg/kg/injection, schedule: Q04DX003 (ip), vehicle: saline with Tween-80
  T/C: 95 % of control

## C=Cn1ccnc1C(O)(c1ccc(Cl)cc1)c1ccc(Cl)cc1
[2]
  T/C: 116 % of control

## O=C1CN(CCl)C(=O)CN1CCl
dose: 12.5 mg/kg/injection, schedule: Q04DX003 (ip), vehicle: water
  T/C: 100 % of control and 107 % of control
dose: 25.0 mg/kg/injection, schedule: Q01DX009 (ip), vehicle: water
  T/C: 94 % of control
dose: 25.0 mg/kg/injection, schedule: Q04DX003 (ip), vehicle: water
  T/C: 92 % of control and 103 % of control
dose: 50.0 mg/kg/injection, schedule: Q01DX009 (ip), vehicle: water
  T/C: 92 % of control
dose: 50.0 mg/kg/injection, schedule: Q04DX003 (ip), vehicle: water
  T/C: 95 % of control and 107 % of control
dose: 100.0 mg/kg/injection, schedule: Q01DX009 (ip), vehicle: water
  T/C: 100 % of control
dose: 100.0 mg/kg/injection, schedule: Q04DX003 (ip), vehicle: water
  T/C: 96 % of control
dose: 200.0 mg/kg/injection, schedule: Q01DX009 (ip), vehicle: water
  T/C: 94 % of control

## NC(=S)N/N=C/c1ccc(O)cn1
dose: 18.8 mg/kg/injection, schedule: Q01DX009 (ip), vehicle: saline with Tween-80
  T/C: 189 % of control
dose: 25.0 mg/kg/injection, schedule: Q01DX001 (ip), vehicle: Klucel (hydroxypropylcellulose) (HPC)
  T/C: 100 % of control and 109 % of control
dose: 25.0 mg/kg/injection, schedule: Q01DX010 (ip), vehicle: saline
  T/C: 172 % of control
dose: 25.0 mg/kg/injection, schedule: Q04DX002 (ip), vehicle: Klucel (hydroxypropylcellulose) (HPC)
  T/C: 103 % of control
dose: 25.0 mg/kg/injection, schedule: Q04DX003 (ip), vehicle: Klucel (hydroxypropylcellulose) (HPC)
  T/C: 122 % of control
dose: 37.5 mg/kg/injection, schedule: Q01DX009 (ip), vehicle: saline with Tween-80
  T/C: 219 % of control
dose: 50.0 mg/kg/injection, schedule: Q01DX010 (ip), vehicle: saline
  T/C: 200 % of control
dose: 75.0 mg/kg/injection, schedule: Q01DX009 (ip), vehicle: saline with Tween-80
  T/C: 178 % of control
dose: 100.0 mg/kg/injection, schedule: Q01DX010 (ip), vehicle: saline
  T/C: 227 % of control
dose: 200.0 mg/kg/injection, schedule: Q01DX010 (ip), vehicle: saline
  T/C: 100 % of control

## CC1(C(=O)O)CCC2(C)CCC3(C)C(=CC(=O)C4C5(C)CCC(OC6OC(C(=O)O)C(O)C(O)C6OC6OC(C(=O)O)C(O)C(O)C6O)C(C)(C)C5CCC43C)C2C1 (stereo unspecified)
dose: 100.0 mg/kg/injection, schedule: Q04DX003 (ip), vehicle: alcohol
  T/C: 104 % of control
dose: 200.0 mg/kg/injection, schedule: Q04DX003 (ip), vehicle: alcohol
  T/C: 104 % of control
dose: 400.0 mg/kg/injection, schedule: Q04DX003 (ip), vehicle: alcohol
  T/C: 90 % of control

## CCCCCCCCCCCCCCCCOc1c(Br)cc(Br)cc1Br
dose: 50.0 mg/kg/injection, schedule: Q01DX001 (ip), vehicle: saline with Tween-80
  T/C: 90 % of control

## Clc1ccc2nnnn2n1
dose: 16.25 mg/kg/injection, schedule: Q01DX009 (ip), vehicle: saline with Tween-80
  T/C: 99 % of control
dose: 32.5 mg/kg/injection, schedule: Q01DX009 (ip), vehicle: saline with Tween-80
  T/C: 101 % of control
dose: 40.0 mg/kg/injection, schedule: Q01DX009 (ip), vehicle: saline with Tween-80
  T/C: 97 % of control
dose: 80.0 mg/kg/injection, schedule: Q01DX009 (ip), vehicle: saline with Tween-80
  T/C: 111 % of control
dose: 130.0 mg/kg/injection, schedule: Q01DX009 (ip), vehicle: saline with Tween-80
  T/C: 151 % of control

## CCOC(=O)N1CCN(CCCCCOc2ccccc2C2CCCCC2)CC1
[1]
  T/C: 111 % of control
[2]
  T/C: 120 % of control

## CC1CC2CCCC(O)=C2C(=O)O1 (stereo unspecified)
dose: 37.0 mg/kg/injection, schedule: Q01DX010 (ip), vehicle: saline
  T/C: 95 % of control
dose: 75.0 mg/kg/injection, schedule: Q01DX010 (ip), vehicle: saline
  T/C: 100 % of control
dose: 150.0 mg/kg/injection, schedule: Q01DX010 (ip), vehicle: saline
  T/C: 105 % of control

## [NH-]C(CC(N)=O)C(=O)O.[NH-]C(CC(N)=O)C(=O)O.[Ni+2] (stereo unspecified)
dose: 3.12 mg/kg/injection, schedule: Q01DX009 (ip), vehicle: water
  T/C: 88 % of control
dose: 6.25 mg/kg/injection, schedule: Q01DX009 (ip), vehicle: water
  T/C: 100 % of control
dose: 12.5 mg/kg/injection, schedule: Q01DX009 (ip), vehicle: water
  T/C: 94 % of control

## CC/C(=C(\CC)c1ccc(OCCN(CC)CC)cc1)c1ccc(OCCN(CC)CC)cc1
dose: 12.5 mg/kg/injection, schedule: Q01DX010 (ip), vehicle: carboxymethylcellulose (CMC)
  T/C: 100 % of control
dose: 25.0 mg/kg/injection, schedule: Q01DX010 (ip), vehicle: carboxymethylcellulose (CMC)
  T/C: 105 % of control
